Square brackets hold non-standard residues; d marks the D form. Peptide text beside a SMILES is read from it. Aoe = N[C@@H](CCCCCC(=O)[C@@H]1CO1)C(=O)O
What was measured:
Histone deacetylase [1] = test: Induction of p21 using Histone deacetylase inhibitors; type: protein assay, Homo sapiens
Histone deacetylase [2] = test: Concentration required to inhibit human Histone deacetylase (HDAC) enzyme by 50%; type: protein assay
A549 = test: Concentration required to inhibit the lung A549 cell growth by 50%,P53 status of cell line used was wild-type.; type: functional, cell-based; conditions: Homo sapiens
HCT-116 [3] = test: Concentration required to inhibit the HCT116 cell growth by 50%.; type: functional, cell-based; conditions: Homo sapiens
HCT-116 [4] = test: Concentration required to inhibit the colon HCT116 cell growth by 50%,P53 status of cell line used was wild-type.; type: functional, cell-based; conditions: Homo sapiens
Histone deacetylase [5] = test: Concentration required to inhibit the partially purified HDAC enzyme by 50% obtained from H1299 cell lysate; type: functional, cell-based, Homo sapiens
LS174T = test: Concentration required to inhibit the colon LS 174T cell growth by 50%,P53 status of cell line used was […].; type: functional, cell-based; conditions: Homo sapiens
[6] = Concentration required to inhibit the breast MDA-MB-435S cell growth by 50%,P53 status of cell line used was mutant-type.; type: functional; conditions: Homo sapiens
SW-620 = test: Concentration required to inhibit the colon SW 620 cell growth by 50%,P53 status of cell line used was mutant-type.; type: functional, cell-based; conditions: Homo sapiens
NCI-H1299 = test: Concentration required to inhibit the lung H1299 cell growth by 50%,P53 status of cell line used was deleted.; conditions: Homo sapiens
T-24 = test: Concentration required to inhibit the bladder T24 cell growth by 50%,P53 status of cell line used was mutant.; conditions: Homo sapiens
A-431 = test: Concentration required to inhibit the epidermoid A431 cell growth by 50%, P53 status of cell line used was mutant.; conditions: Homo sapiens

Row | AC50 (Histone deacetylase [1]) [nM] | IC50 (Histone deacetylase [2]) [nM] | IC50 (HCT-116 [3]) [nM] | IC50 (Histone deacetylase [5]) [nM] | SMILES | also measured
1 | > 10000 | > 10000 |  |  | CN(C)c1ccc(C(=O)NCCCCC(=O)NO)cc1 | 
2 | > 10000 | 369 |  |  | O=C(CCCCCNC(=O)c1ccc(Cl)cc1)NO | 
3 | 7500 | 515 |  |  | O=C(CCCCCN1C(=O)c2ccccc2C1=O)NO | 
4 | 2400 | 279 | > 10000 | > 10000 | COc1ccc(NC(=O)CCCCCCC(=O)NO)cc1 | 
5 | 5700 | 568 | 1040 | > 10000 | O=C(CCCCCCNC(=O)c1ccccc1)NO | 
6 |  |  | 13 |  | CC(/C=C/C(=O)NO)=C\[C@@H](C)C(=O)c1ccc(N(C)C)cc1 [TRICHOSTATIN] | 

Further lines, the compound ahead of its results:

Row | SMILES | AC50 (Histone deacetylase [1]) [nM] | IC50 (Histone deacetylase [2]) [nM] | IC50 (HCT-116 [3]) [nM] | IC50 (Histone deacetylase [5]) [nM] | also measured
7 | O=C(CCCCCNC(=O)c1ccc([N+](=O)[O-])cc1)NO | > 10000 | 1556 |  |  | 
8 | CN(C)c1ccc(C(=O)NCCCCCCC(=O)NO)cc1 | 2100 | 46 | 210 | 1620 | IC50 (A549): 800 nM; IC50 (HCT-116 [4]): 200 nM; IC50 (LS174T): 1500 nM; IC50 [6]: 1300 nM; IC50 (SW-620): 700 nM; IC50 (NCI-H1299): 3900 nM; IC50 (T-24): 3800 nM; IC50 (A-431): 2300 nM
9 | CN(C)c1ccc(C(=O)NCCCCCCCC(=O)NO)cc1 | 1600 | 145 | 500 | 2180 | 
10 | O=C(CCCCCNC(=O)c1ccc(-c2ccccc2)cc1)NO | > 10000 | 265 |  |  | 
11 | O=C(CCCCCNC(=O)c1ccc(OCc2ccccc2)cc1)NO | > 10000 | 220 |  |  | 
12 | O=C(O)CCCCCCC(=O)c1ccccc1 | 4100 | 270 | 1720 | > 10000 | 
13 | CONC(=O)CCCCCNC(=O)c1ccccc1 | > 10000 | > 10000 |  |  | 
14 | NNC(=O)CCCCCNC(=O)c1ccccc1 | > 10000 | > 10000 |  |  | 
15 | O=C(CCCCCCC(=O)Nc1ccccn1)NO |  |  | 2000 |  | 
16 | O=C(CCCCCCC(=O)Nc1ccncc1)NO | 8900 | 306 | 5400 | > 10000 | 
17 | CN(CCCCCC(=O)NO)C(=O)c1ccc(N(C)C)cc1 | > 10000 | 443 |  |  | 
18 | O=C(CCCCCCC(=O)Nc1cccnc1)NO [PYROXAMIDE] |  |  | 6500 |  | 
19 | O=C1N[C@@H](Cc2ccccc2)C(=O)N2CCC[C@@H]2C(=O)N[C@@H](CCCCCC(=O)[C@@H]2CO2)C(=O)N[C@H]1Cc1ccccc1 [TRAPOXIN B] (cyclo(FF[dP][Aoe])) |  |  | 2 |  | 
